# Reference: ChEMBL document CHEMBL4433200, “Another look at phenolic compounds in cancer therapy the effect of polyphenols on ubiquitin-proteasome system” (Eur J Med Chem, 2019)
# Assays:
# [1] = target: T1, Proteasome subunit beta type-5 (Rattus norvegicus, UniProt P28075); test: Inhibition of chymotrypsin-like activity of rat liver 26 proteasome assessed as decrease in fluorescence using succinyl-Leu-Leu-Val-Tyr-4-methylcoumaryl-7-amide as substrate preincubated for 30 mins followed by addition of substrate and measured after 1 hr by fluorescence based method
# T1 sequence (P28075 whole entry): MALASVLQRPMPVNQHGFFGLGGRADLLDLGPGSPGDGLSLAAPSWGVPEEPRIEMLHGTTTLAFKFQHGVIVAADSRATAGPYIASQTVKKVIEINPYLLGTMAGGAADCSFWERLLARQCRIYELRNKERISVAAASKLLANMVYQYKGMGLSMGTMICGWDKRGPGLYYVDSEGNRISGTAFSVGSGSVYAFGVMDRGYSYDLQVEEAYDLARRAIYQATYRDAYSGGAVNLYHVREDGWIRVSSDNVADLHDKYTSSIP
# [2] = target: T2, Proteasome Macropain subunit MB1 (Homo sapiens, UniProt P28074); test: Inhibition of chymotrypsin-like activity of purified human erythrocyte 20S proteasome assessed as decrease in AMC hydrolysis using Suc-LLVY-AMC as substrate preincubated for 10 mins and measured by fluorescence based method
# T2 sequence (P28074 whole entry): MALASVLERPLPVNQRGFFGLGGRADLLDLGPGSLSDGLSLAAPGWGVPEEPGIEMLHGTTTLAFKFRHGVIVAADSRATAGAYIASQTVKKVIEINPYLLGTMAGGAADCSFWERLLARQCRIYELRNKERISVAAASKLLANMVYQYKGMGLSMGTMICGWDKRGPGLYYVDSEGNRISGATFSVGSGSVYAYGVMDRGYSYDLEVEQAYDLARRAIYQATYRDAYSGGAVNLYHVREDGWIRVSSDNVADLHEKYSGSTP
# [3] = target: T2, Proteasome Macropain subunit MB1; test: Inhibition of chymotrypsin-like activity of purified human 20S proteasome assessed as decrease in AMC hydrolysis using Suc-Leu-Leu-Val-Tyr-AMC as substrate incubated for 30 mins by fluorometric analysis
# [4] = target: T2, Proteasome Macropain subunit MB1; test: Inhibition of chymotrypsin-like activity of purified human 20S proteasome expressed in human Jurkat cells assessed as decrease in AMC hydrolysis using Suc-Leu-Leu-Val-Tyr-AMC as substrate incubated for 2 hrs by fluorescence based method
# [5] = target: T2, Proteasome Macropain subunit MB1; test: Inhibition of chymotrypsin-like activity of human 26S proteasome in human Jurkat cells assessed as decrease in AMC hydrolysis using Z-Gly-Gly-Leu-AMC as substrate after 24 hrs by fluorescence based method; type: cell-based
# [6] = Inhibition of chymotrypsin-like activity of rabbit 20S proteasome assessed as AMC hydrolysis using Suc-LLVY-AMC as substrate incubated for 2hrs by fluorescence based method; design: species or system Oryctolagus cuniculus
# [7] = target: T2, Proteasome Macropain subunit MB1; test: Inhibition of chymotrypsin-like activity of human 26S proteasome extracted from human Jurkat cells assessed as decrease in AMC hydrolysis using […] as substrate after 90 mins by fluorometric analysis; type: cell-free
# [8] = target: T2, Proteasome Macropain subunit MB1; test: Inhibition of chymotrypsin-like activity of human 26S proteasome in human Jurkat cells assessed as decrease in AMC hydrolysis using […] as substrate preincubated for 12 hrs followed by addition of substrate and measured after 2 hrs by fluorometric analysis; type: cell-based
# [9] = Inhibition of chymotrypsin-like activity of purified rabbit 20S proteasome assessed as decrease in AMC hydrolysis using Suc-Leu-Leu-Val-Tyr-AMC as substrate incubated for 30 mins by fluorescence based method; design: species or system Oryctolagus cuniculus
# [10] = target: T2, Proteasome Macropain subunit MB1; test: Inhibition of chymotrypsin-like activity of human 26S proteasome extracted from human LNCap cells assessed as decrease in AMC hydrolysis using Suc-Leu-Leu-Val-Tyr-AMC as substrate incubated for 60 mins by fluorescence based method; type: cell-free
smiles,measurement,setting,value
COc1cc(O)c(C(=O)c2ccc(O)cc2)c(O)c1,IC50,[1],> 0.25 µg/mL
COc1ccc2c(c1)O[C@H]1c3ccc(O)cc3OC[C@@H]21,IC50,[2],> 100 µM
Oc1ccc(CC2COc3cc(O)ccc3C2)cc1 (configuration not stated),IC50,[1],0.06 µg/mL
C=CC(/C=C\c1ccc(O)cc1)c1ccc(O)cc1 (configuration not stated),IC50,[1],0.018 µg/mL
O=C(O[C@@H]1Cc2c(O)cc(O)cc2O[C@H]1c1ccc(O)c(O)c1)c1cc(O)c(O)c(O)c1 [(-)-CATECHINGALLATE],IC50,[3],0.124 µM
O=c1cc(-c2ccc(O)cc2)oc2cc(O)cc(O)c12 [APIGENIN],IC50,[4],1.8 to 2.3 µM
same,IC50,[5],1 to 1.9 µM
COc1cc(O)ccc1CCCc1ccc(O)cc1 [BROUSSONIN B],IC50,[1],0.046 µg/mL
O=c1cc(-c2ccccc2)oc2cc(O)cc(O)c12 [CHRYSIN],IC50,[4],4.9 µM
same,IC50,[5],6.1 µM
COc1cc(/C=C/C(=O)CC(=O)/C=C/c2ccc(O)c(OC)c2)ccc1O [CURCUMIN],IC50,[6],1.85 µM
O=c1c(-c2ccc(O)cc2)coc2cc(O)ccc12 [DAIDZEIN],IC50,[2],> 100 µM
O=C(O[C@@H]1Cc2c(O)cc(O)cc2O[C@@H]1c1ccc(O)c(O)c1)c1cc(O)c(O)c(O)c1 [EPICATECHIN GALLATE],IC50,[3],0.194 µM
Oc1cc(O)c2c(c1)O[C@H](c1cc(O)c(O)c(O)c1)[C@H](O)C2 [EPIGALLOCATECHIN],IC50,[3],1200 µM
O=C(O[C@@H]1Cc2c(O)cc(O)cc2O[C@@H]1c1cc(O)c(O)c(O)c1)c1cc(O)c(O)c(O)c1 [EPIGALOCATECHIN GALLATE],IC50,[3],0.086 to 0.194 µM
same,IC50,[7],1 to 10 µM
same,IC50,[8],18 µM
O=C1C[C@@H](c2ccc(O)c(O)c2)Oc2cc(O)cc(O)c21 [ERIODICTYOL],IC50,[4],16.2 µM
same,IC50,[5],14.6 µM
COc1ccc(-c2coc3cc(O)ccc3c2=O)cc1 [FORMONONETIN],IC50,[2],> 100 µM
O=C(O)c1cc(O)c(O)c(O)c1 [GALLIC ACID],IC50,[3],7100 µM
O=C(O[C@@H]1Cc2c(O)cc(O)cc2O[C@H]1c1cc(O)c(O)c(O)c1)c1cc(O)c(O)c(O)c1 [GALLOCATECHIN GALLATE],IC50,[3],0.187 µM
O=c1c(-c2ccc(O)cc2)coc2cc(O)cc(O)c12 [GENISTEIN],IC50,[2],9.26 µM
same,IC50,[9],26 µM
same,IC50,[10],65 to 70 µM
O=C(/C=C/c1ccc(O)cc1)c1ccc(O)cc1O [ISOLIQUIRITIGENIN],IC50,[2],4.88 µM
O=c1c(O)c(-c2ccc(O)cc2)oc2cc(O)cc(O)c12 [KAEMPFEROL],IC50,[4],10.5 µM
same,IC50,[5],11 µM
O=C1C[C@@H](c2ccc(O)cc2)Oc2cc(O)ccc21 [LIQUIRTIGENIN],IC50,[2],> 100 µM
O=c1cc(-c2ccc(O)c(O)c2)oc2cc(O)cc(O)c12 [LUTEOLIN],IC50,[4],1.5 µM
same,IC50,[5],1.3 µM
O=c1c(O)c(-c2cc(O)c(O)c(O)c2)oc2cc(O)cc(O)c12 [MYRICETIN],IC50,[4],10 µM
same,IC50,[5],12 µM
O=C1C[C@@H](c2ccc(O)cc2)Oc2cc(O)cc(O)c21 [NARINGENIN],IC50,[4],48.8 µM
same,IC50,[5],41.6 µM
O=c1c(O)c(-c2ccc(O)c(O)c2)oc2cc(O)cc(O)c12 [QUERCETIN],IC50,[4],3.5 µM
same,IC50,[5],2 µM
